Data reported in patent publication US9936701B2, “Herbicidal compounds” (Syngenta Participations AG, priority 2013, dated 2018).

What was measured:
[1] = tested on: a variety of test species; experiment: Pre-emergence herbicidal activity (glasshouse, sprayed one day after sowing, evaluated after 13 days); type: in vivo; set-up: key: 5=total damage to plant; 0=no damage to plant; conditions: application pre-emergence, rate 1000 g/Ha, scale 0-5
How it was run: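 Visual 0–5 injury score (5 = total damage) taken 13 days after spraying. Treatment applied one day after sowing, before emergence; glasshouse at 24/16 °C day/night, 14 h photoperiod, 65% humidity.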

[2] = tested on: a variety of test species; experiment: Post-emergence herbicidal activity (glasshouse, sprayed after 8 days cultivation, evaluated after 13 days); type: in vivo; set-up: key: 5=total damage to plant; 0=no damage to plant; conditions: rate 1000 g/Ha, scale 0-5
How it was run: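 Pot-grown seedlings sprayed 8 days after sowing with active ingredient in acetone/water (50:50) plus 0.5% Tween 20. Glasshouse at 24/16 °C day/night, 14 h light, 65% humidity, watered twice daily. Damage scored after 13 days on a 0–5 scale (5 = total damage, 0 = none).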

SMILES | melting point [°C] | Pre-emergence herbicidal damage score, ABUTH [1] | Pre-emergence herbicidal damage score, ALOMY [1] | Pre-emergence herbicidal damage score, AMARE [1] | Pre-emergence herbicidal damage score, ECHCG [1] | Pre-emergence herbicidal damage score, SETFA [1] | Pre-emergence herbicidal damage score, ZEAMX [1] | ABUTH (Abutilon theophrasti) damage score, application post-emergence [2] | ALOMY (Alopecurus myosuroides) damage score, application post-emergence [2] | AMARE (Amaranthus retroflexus) damage score, application post-emergence [2] | ECHCG (Echinochloa crus-galli) damage score, application post-emergence [2] | SETFA (Setaria faberi) damage score, application post-emergence [2] | ZEAMX (Zea mays) damage score, application post-emergence [2]
COC1=C(C)C(O)N(c2cc(C(C)(C)C#N)on2)C1=O (stereo not shown) [D4] | 123 to 125 | 5 | 4 | 5 | 5 | 5 | 3 | 5 | 5 | 5 | 5 | 5 | 5
CCC(C)(C)c1onc(N2C(=O)C(OC)=C(C)C2O)c1C#N (stereo not shown) [D5] | 79 to 81 | 5 | 4 | 5 | 5 | 5 | 2 | 5 | 5 | 5 | 5 | 5 | 5
CCOC1=C(C)C(O)N(c2cc(C(C)(C)C#N)on2)C1=O (stereo not shown) [D6] | 90 to 92 | 5 | 4 | 5 | 5 | 4 | 3 | 5 | 4 | 5 | 5 | 5 | 2
COC1=C(C)C(OC(C)=O)N(c2cc(C(C)(C)C)on2)C1=O (stereo not shown) [D7] | 118 to 124 | 5 | 3 | 5 | 4 | 5 | 2 | 5 | 4 | 5 | 5 | 5 | 3
CCOC1=C(C)CN(c2cc(C(C)(C)C#N)on2)C1=O [D8] | 127 to 129 | 3 | 2 | 4 | 3 | 4 | 2 | 4 | 3 | 5 | 4 | 3 | 0
COC1=C(C)CN(c2noc(C(C)C)c2C#N)C1=O [D10] | 131 to 133 | 4 | 3 | 5 | 5 | 5 | 2 | 4 | 5 | 5 | 5 | 5 | 2
COC1=C(C)CN(c2noc(C(C)(C)C)c2C#N)C1=O [D11, 5-tert-butyl-3-(4-methoxy-3-methyl-5-oxo-2H-pyrrol-1-yl)isoxazole-4-carbonitrile] | 138 to 140 | 4 | 4 | 5 | 5 | 5 | 3 | 5 | 5 | 5 | 5 | 5 | 4
COC1=C(C)CN(c2cc(C(C)(C)C#N)on2)C1=O [D12] | 103 to 105 | 5 | 4 | 5 | 5 | 4 | 2 | 4 | 4 | 5 | 5 | 5 | 2
CCC(C)(C)c1onc(N2CC(C)=C(OC)C2=O)c1C#N [D13] | 72 to 74 | 2 | 2 | 5 | 4 | 2 | 2 | 4 | 5 | 5 | 5 | 5 | 2
COC1=C(Cl)C(O)N(c2cc(C(C)(C)C)on2)C1=O (stereo not shown) [E1, 1-(5-tert-butylisoxazol-3-yl)-3-chloro-2-hydroxy-4-methoxy-2H-pyrol-5-one] | 123 to 133 | 4 | 2 | 5 | 3 | 3 | 2 | 5 | 3 | 5 | 5 | 5 | 0
COC1=C(Cl)C(OC(C)=O)N(c2cc(C(C)(C)C)on2)C1=O (stereo not shown) [E2, [1-(5-tert-butylisoxazol-3-yl)-3-chloro-4-methoxy-5-oxo-2H-pyrrol-2-yl]acetate] | 101 to 107 | 5 | 3 | 5 | 4 | 3 | 1 | 5 | 3 | 5 | 5 | 5 | 0
COC1=C(Cl)CN(c2cc(C(C)(C)C)on2)C1=O [E3] | 94 to 106 | 2 | 1 | 5 | 3 | 3 | 1 | 1 | 0 | 2 | 2 | 4 | 0
COC1=C(C)C(=O)N(c2noc(C(C)C)c2C#N)C1O (stereo not shown) [G4] | 133 to 135 | 4 | 3 | 5 | 5 | 5 | 2 | 5 | 5 | 5 | 5 | 5 | 4
